Measurements published in article PMC2613953, “Characterisation of ATP analogues to cross-link and label P2X receptors” (Neuropharmacology, 2009).
Each block holds one compound with its values, some of them ahead of it.

Columns and labels:
Assay type in all cases: cell-based
[1] = molecular target: T1, P2X1 receptor (Homo sapiens, UniProt P51575); experiment: UV photo-cross-linking of radiolabelled analogue, immunoprecipitation and autoradiography with ATP competition; patch clamp agonism
T1 construct: gene P2RX1; human P2X1 receptor stably expressed in HEK293 cells
T1 sequence (P51575 1-399): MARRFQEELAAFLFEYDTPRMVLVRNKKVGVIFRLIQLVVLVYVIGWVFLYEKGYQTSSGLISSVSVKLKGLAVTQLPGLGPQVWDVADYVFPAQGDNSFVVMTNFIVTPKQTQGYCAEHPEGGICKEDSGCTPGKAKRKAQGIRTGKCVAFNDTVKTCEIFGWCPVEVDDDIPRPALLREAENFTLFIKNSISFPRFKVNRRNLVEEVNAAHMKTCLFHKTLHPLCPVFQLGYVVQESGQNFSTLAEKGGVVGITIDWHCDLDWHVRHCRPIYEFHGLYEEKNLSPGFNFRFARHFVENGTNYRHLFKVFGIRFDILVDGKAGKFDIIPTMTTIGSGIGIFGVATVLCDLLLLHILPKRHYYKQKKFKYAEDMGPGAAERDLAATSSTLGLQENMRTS
Source text: UV photo-cross-linking of radiolabelled analogue, immunoprecipitation and autoradiography with ATP competition; patch clamp agonism on P2X1 receptor | It confirms the identification of 2-azido ATP as a cross-linking compound which directly binds to the P2X1 receptor.

[2] = molecular target: T2, P2X4 receptor (Homo sapiens, UniProt Q99571); experiment: UV photo-cross-linking, then whole cell patch clamp ([…] reduction of ATP current)
T2 construct: gene P2RX4; human P2X4 receptor stably expressed in HEK293 cells
T2 sequence (Q99571 1-388): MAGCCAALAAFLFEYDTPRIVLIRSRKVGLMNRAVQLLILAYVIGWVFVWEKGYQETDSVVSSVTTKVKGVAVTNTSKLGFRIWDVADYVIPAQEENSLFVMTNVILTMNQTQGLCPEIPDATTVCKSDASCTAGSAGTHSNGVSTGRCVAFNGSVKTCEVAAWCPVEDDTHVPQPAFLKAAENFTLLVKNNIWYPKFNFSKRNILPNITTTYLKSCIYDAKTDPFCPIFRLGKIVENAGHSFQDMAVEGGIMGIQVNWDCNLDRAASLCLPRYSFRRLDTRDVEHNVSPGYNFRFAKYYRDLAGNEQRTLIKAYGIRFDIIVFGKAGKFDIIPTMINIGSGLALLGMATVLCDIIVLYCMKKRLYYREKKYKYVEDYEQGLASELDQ

[3] = molecular target: T3, P2X3 receptor (Rattus norvegicus, UniProt P49654); experiment: as above
T3 construct: gene P2rx3; rat P2X3 transiently expressed in HEK293 cells
T3 sequence (P49654 1-397): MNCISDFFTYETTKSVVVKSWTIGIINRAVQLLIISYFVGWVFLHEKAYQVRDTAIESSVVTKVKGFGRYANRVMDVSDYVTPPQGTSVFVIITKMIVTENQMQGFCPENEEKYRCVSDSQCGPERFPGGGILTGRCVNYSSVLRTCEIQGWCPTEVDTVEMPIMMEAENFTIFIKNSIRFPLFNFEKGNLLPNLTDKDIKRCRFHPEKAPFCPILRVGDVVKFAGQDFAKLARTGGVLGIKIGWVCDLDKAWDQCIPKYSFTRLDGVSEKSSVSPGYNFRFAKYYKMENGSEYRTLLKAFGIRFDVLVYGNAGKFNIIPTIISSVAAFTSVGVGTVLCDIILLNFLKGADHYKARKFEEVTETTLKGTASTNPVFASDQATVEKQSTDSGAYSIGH

[4] = molecular target: T4, P2X2 receptor (Rattus norvegicus, UniProt P49653); experiment: as above
T4 construct: gene P2rx2; rat P2X2 transiently expressed in HEK293 cells
T4 sequence (P49653 1-472): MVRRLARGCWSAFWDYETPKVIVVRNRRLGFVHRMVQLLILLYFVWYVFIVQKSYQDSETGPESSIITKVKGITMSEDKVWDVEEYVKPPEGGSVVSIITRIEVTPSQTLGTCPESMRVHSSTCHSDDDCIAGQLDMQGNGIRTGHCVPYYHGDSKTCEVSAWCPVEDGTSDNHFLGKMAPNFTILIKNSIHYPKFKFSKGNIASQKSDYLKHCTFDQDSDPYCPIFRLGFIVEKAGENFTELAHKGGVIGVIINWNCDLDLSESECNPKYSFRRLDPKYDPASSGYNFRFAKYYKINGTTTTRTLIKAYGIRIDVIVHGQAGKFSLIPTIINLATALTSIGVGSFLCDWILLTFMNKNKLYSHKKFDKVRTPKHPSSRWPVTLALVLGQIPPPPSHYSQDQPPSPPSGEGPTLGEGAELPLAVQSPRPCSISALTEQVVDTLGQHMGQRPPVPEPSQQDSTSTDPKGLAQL

[5] = molecular target: T1, P2X1 receptor; experiment: whole cell patch clamp; partial agonist; UV cross-linking with ATP/suramin protection
[6] = molecular target: T4, P2X2 receptor; experiment: whole cell patch clamp, agonist current at approximate EC50 concentration
[7] = molecular target: T3, P2X3 receptor; experiment: as above
[8] = molecular target: T1, P2X1 receptor; experiment: competition with radiolabelled photo-reactive ATP analogues; whole cell patch clamp agonism

EC50 [1]: ~3 µM | % reduction [2]: 45 % reduction | % reduction [3]: 83 % reduction | % reduction [4]: 80 % reduction
Structure (SMILES): [N-]=[N+]=Nc1nc(N)c2ncn([C@@H]3O[C@H](COP(=O)(O)OP(=O)(O)OP(=O)(O)O)[C@@H](O)[C@H]3O)c2n1 [A, 2-azido ATP]

Structure (SMILES): Nc1ncnc2c1ncn2[C@@H]1O[C@H](COP(=O)(O)OP(=O)(O)OP(=O)(O)O)[C@@H](OC(=O)c2ccc(C(=O)c3ccccc3)cc2)[C@H]1O [C, 2′,3′-O-(4-benzoylbenzoyl)-ATP]
whole cell patch clamp; partial agonist; UV cross-linking with ATP/suramin prote [5]: These results suggest that the BzATP is acting to cross-link to the P2X1 receptor at the ATP binding site.

Structure (SMILES): Nc1ncnc2c1ncn2[C@@H]1O[C@H](COP(=O)(O)OP(=O)(O)OP(=O)(O)O)[C@@H](O)[C@H]1O [ATP]
EC50 [6]: ~ 10 μM | EC50 [7]: ~ 1 μM | EC50 [8]: ~1 µM
